The subject of one experiment is ES strain of lymphomatosis virus.
Assay: not given
The settings on record: US 3,429,971 table 2; cited from earlier work.
On to `CC(C)=CCC/C(C)=C/CO` [Trans-2,6-dimethyl-2,6,octadiene-8-ol, (2E)-3,7-dimethylocta-2,6-dien-1-ol], for which the No. cures is 0.

In another experiment the test system is Human Papilloma Virus (HPV). The experiment is described as follows: Comparative tests: cervical lesions caused by HPV, 44 female patients, observation after 10 days. The class given is in vivo. Particulars: undiluted composition. On the procedure:
The hereunder mentioned comparative tests are aimed to establish observation(s) after 10 days on 44 female human patients by Controlled Clinical Trial on Cervical Lesions (wounds) caused by the Human Papilloma Virus (HPV) which is a double stranded DNA non enveloped virus. […] In order to establish the non-activity of possible placebo's to be used in the clinical trial, 44 HPV infected patients were treated with a one-time dose of Placebos compositions.
Consider `C=C(C)[C@H](CO)CC=C(C)C` [Placebo 21, Lavendulol], for which the “Observation(s) after 10 days: regression of lesions on the surface of the cervix” value (from here on “Observation(s) after 10 days: regression”) is given as “No regression of lesions”.

Consider “(cis+trans)-1,2-(+)-Limonene oxide [Placebo 18]”, for which the “Observation(s) after 10 days: regression” value is on record as “No regression of lesions”.

For the compound (R)-Carvone + (S)-Carvone [Placebo 3], the “Observation(s) after 10 days: regression” value is “No regression of lesions”.

A further experiment relates to human DNA viruses (HSV, ADV) and RNA viruses (CVB1, EV71).
Assay: not given
Particulars: each component used alone; cited from earlier work.
Turning to `C=C1CC/C=C(\C)CC[C@@H]2[C@@H]1CC2(C)C` [beta-caryophylene], the antiviral activity entry was “No activity”.

Take `C=CC(=C)CCC=C(C)C` [beta-myrcene]: the antiviral activity entry is “No activity”.

Regarding `CC(C)=CCCC(C)=CCCC(C)=CCO` [farnesol], the antiviral activity entry is reported as “No activity”.

With `C=C(C)C1CC=C(C)C(=O)C1` (stereo not shown) [carvone], the antiviral activity entry is reported as “No activity”.

For the compound `CC(C)[C@]12CC(=O)[C@H](C)[C@H]1C2` [alpha-thujone], the antiviral activity entry is listed as “No activity”.

Consider `CC(C)=CCC/C(C)=C/CO` [geraniol], for which the antiviral activity result is “No activity”.

As to `CC12CCC(C1)C(C)(C)C2=O` (stereo not shown) [fenchone], the antiviral activity result was “No activity”.

Regarding `CC12CCC(CC1)C(C)(C)O2` [cineole], the antiviral activity entry is “No activity”.

The next experiment relates to adenovirus type 6.
Assay: not given
Particulars: in vitro; cited from earlier work.
`C=C(C)C1CC=C(C)C(=O)C1` (stereo not shown) [carvone]: the “antiviral activity against adenovirus type 6” value is “antiviral activity”.

Source of the values: US8883859B1, “Viral inhibitor compositions for in vivo therapeutic use comprising a combination of (-) -carvone, geraniol and a further essential oil component” (Cesa Alliance S.A., priority 2010, dated 2014).
